The term pIC50 denotes the IC50 on a negative log10 scale, so that one unit is a factor of ten.

Like-named read-outs stand apart in the source and are kept apart here.

Experimental findings from paper PMC12486854, “Targeting mycobacterial transpeptidases: evaluating the roles of Ldt and PBP inhibition in suppressing Mycobacterium smegmatis” (Antimicrobial Agents and Chemotherapy, 2025) are described below.

In experiment [1] the test system is Mycobacterium smegmatis (Msm). On the set-up: broth microdilution MIC, resazurin read-out, 4 days at 37 C. The settings on record: without clavulanic acid; 96 h.
Experiment [2] concerns Mycobacterium smegmatis (Msm). Briefly: microbe, parasite or virus in culture. The settings on record: without clavulanic acid, 96 h.
The target of experiment [3] is T1, Mtb PBP3 Δ1-122 (Mycobacterium tuberculosis, UniProt L0T911).
T1 construct: gene pbpB; N-terminally truncated (residues 1-122 removed), codon-optimised gene in pCold, E. coli BL21(DE3), His tag cleaved with 3C protease, calculated mass 60,148 Da, observed 60,152 Da
Put plainly: biochemical.

Experiment [4] addresses T1, Mtb PBP3 Δ1-122. Briefly: biochemical. The class given is biochemical.
The target of experiment [5] is T2, LdtMt2 (Mycobacterium tuberculosis, UniProt I6Y9J2).
T2 construct: gene ldtB
Briefly: biochemical.

The target of experiment [6] is T2, LdtMt2. Briefly: biochemical. The source holds these as a separate data set.
Experiment [7] deals with Mycobacterium smegmatis (Msm). The settings on record: without clavulanic acid; 96 h.
Where [8] appears, read: 10 min pre-incubation, read-out: pIC50 LdtMt2 (converted).

T1 sequence (L0T911 whole entry, looked up, stated change not applied, the tested form may be a part): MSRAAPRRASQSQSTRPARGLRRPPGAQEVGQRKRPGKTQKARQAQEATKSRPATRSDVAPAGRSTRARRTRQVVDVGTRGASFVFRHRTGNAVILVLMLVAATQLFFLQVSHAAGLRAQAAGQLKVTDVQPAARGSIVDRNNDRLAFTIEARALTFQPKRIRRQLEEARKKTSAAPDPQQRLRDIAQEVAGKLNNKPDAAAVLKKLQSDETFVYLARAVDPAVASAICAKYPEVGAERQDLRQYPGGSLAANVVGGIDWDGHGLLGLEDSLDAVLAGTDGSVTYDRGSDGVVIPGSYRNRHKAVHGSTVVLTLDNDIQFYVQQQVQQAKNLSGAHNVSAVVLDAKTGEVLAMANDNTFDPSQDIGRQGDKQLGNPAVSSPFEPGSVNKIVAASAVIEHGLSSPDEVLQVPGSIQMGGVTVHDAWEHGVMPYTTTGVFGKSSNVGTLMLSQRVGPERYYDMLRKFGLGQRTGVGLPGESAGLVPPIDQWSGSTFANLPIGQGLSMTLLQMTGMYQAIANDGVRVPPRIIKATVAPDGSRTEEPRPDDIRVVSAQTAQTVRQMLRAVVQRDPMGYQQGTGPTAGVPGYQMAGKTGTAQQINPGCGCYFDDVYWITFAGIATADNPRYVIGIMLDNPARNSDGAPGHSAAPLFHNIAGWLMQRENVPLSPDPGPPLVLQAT
T2 sequence (I6Y9J2 35-408): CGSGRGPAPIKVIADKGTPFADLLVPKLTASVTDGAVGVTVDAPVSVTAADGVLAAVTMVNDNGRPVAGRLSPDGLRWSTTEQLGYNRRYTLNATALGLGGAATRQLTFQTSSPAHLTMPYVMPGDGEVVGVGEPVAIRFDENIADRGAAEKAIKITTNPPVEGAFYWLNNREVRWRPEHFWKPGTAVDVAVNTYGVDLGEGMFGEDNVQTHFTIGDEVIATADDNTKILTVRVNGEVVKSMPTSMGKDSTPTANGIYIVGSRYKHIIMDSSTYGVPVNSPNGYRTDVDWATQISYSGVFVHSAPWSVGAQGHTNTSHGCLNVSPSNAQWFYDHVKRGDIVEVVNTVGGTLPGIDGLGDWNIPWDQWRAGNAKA

With `CC[C@@H](CO)NCCN[C@@H](CC)CO` [Ethambutol], in experiment [1], the “MIC Msm (µg/mL), no clavulanic acid” value came out at 0.25 µg/mL. Turning to `C[C@@H](O)[C@H]1C(=O)N2C(C(=O)O)=C([C@H]3CCCO3)S[C@H]12` [compound 1, faropenem], in experiment [2], the “MIC Msm (µg/mL), no clavulanic acid” value was 16 µg/mL.

For `C[C@@H](O)[C@H]1C(=O)N2C(C(=O)O)=C(SCCN=CN)C[C@H]12` [compound 2, imipenem], the “MIC Msm (µg/mL), no clavulanic acid” value in experiment [2] is 0.125 µg/mL. This molecule gave an IC50 against Mtb PBP3 Δ1-122 [3] of 0.501 µM. `CC(C)(O/N=C(\C(=O)N[C@@H]1C(=O)N2C(C(=O)[O-])=C(C[n+]3ccccc3)CS[C@H]12)c1csc(N)n1)C(=O)O` [compound 6, ceftazidime]: the “MIC Msm (µg/mL), no clavulanic acid” value in experiment [2] is >128 µg/mL. Further, the IC50 at Mtb PBP3 Δ1-122 [4] is 3.16 µM.

Regarding `CO/N=C(\C(=O)N[C@@H]1C(=O)N2C(C(=O)O)=C(CSc3nc(=O)c(=O)[nH]n3C)CS[C@H]12)c1csc(N)n1` [compound 7, ceftriaxone], the “MIC Msm (µg/mL), no clavulanic acid” value in experiment [2] is >128 µg/mL.

Take `CC1(C)S[C@@H]2[C@H](NC(=O)[C@H](N)c3ccccc3)C(=O)N2[C@H]1C(=O)O` [compound 11, ampicillin]: in experiment [2], the “MIC Msm (µg/mL), no clavulanic acid” value is >128 µg/mL.

In the case of `CC1(C)S[C@@H]2[C@H](NC(=O)[C@H](N)c3ccc(O)cc3)C(=O)N2[C@H]1C(=O)O` [compound 12, amoxicillin], in experiment [2], the “MIC Msm (µg/mL), no clavulanic acid” value was >128 µg/mL. Take `CC1(C)S[C@@H]2[C@H](NC(=O)C(C(=O)O)c3ccccc3)C(=O)N2[C@H]1C(=O)O` (stereo partly drawn) [compound 15, carbenicillin]: the IC50 against Mtb PBP3 Δ1-122 [4] is 3.98 µM. The same measure, in the same setting: the same measure for `C[C@H]1[C@H](NC(=O)/C(=N\OC(C)(C)C(=O)O)c2csc(N)n2)C(=O)N1S(=O)(=O)O` [compound 16, aztreonam]: 158 µM. For `O=C(O)[C@H]1/C(=C/CO)O[C@@H]2CC(=O)N21` [compound 17, clavulanic acid], the MIC in experiment [2] (Mycolicibacterium smegmatis, read-out: MIC Msm (µg/mL), no clavulanic acid) came out at 128 µg/mL. Besides, the IC50 at Mtb PBP3 Δ1-122 [3] is > 398 µM. As to `CCC(C)[C@H](NC(=O)OCc1ccccc1)C(=O)CCl` (stereo partly drawn) [compound 18, 18], the negative logarithm of the IC50 (pIC50) on Mtb PBP3 Δ1-122 [4] was < 3.4. Consider `CCC(C)[C@H](NC(=O)OCc1ccccc1)C(=O)CCl` (stereo partly drawn) [compound 18], for which, in experiment [2], the “MIC Msm (µg/mL), no clavulanic acid” value was >128 µg/mL. Regarding `O=C1C=CC(=O)N1c1ccc(Oc2ccccc2)c(Cl)c1` [compound 19], the “MIC Msm (µg/mL), no clavulanic acid” value in experiment [2] amounted to 64 µg/mL. This molecule also showed an IC50 against Mtb PBP3 Δ1-122 [3] of 100 µM. With `O=C(OCN1C(=O)C=CC1=O)c1ccccc1` [compound 20], the “MIC Msm (µg/mL), no clavulanic acid” value in experiment [2] is 64 µg/mL. As to `O=c1c2cc(Cl)c(Cl)cc2sn1CCO` [compound 21, 21], in experiment [2], the “MIC Msm (µg/mL), no clavulanic acid” value stood at 32 µg/mL. Further, on Mtb PBP3 Δ1-122 [3], the IC50 was 79.4 µM. On to `COc1ccc(CN2C(=O)C(=O)c3cc(Br)cc(C)c32)cc1OC` [compound 22, 22], for which the IC50 against Mtb PBP3 Δ1-122 [4] is > 398 µM.

As for `COc1ccc(CN2C(=O)C(=O)c3cc(Br)cc(C)c32)cc1OC` [compound 22], in experiment [2], the “MIC Msm (µg/mL), no clavulanic acid” value was >128 µg/mL. As for `O=C1C(=O)N(Cc2cccc3ccccc23)c2ccc(Br)cc21` [compound 23, 23], the “MIC Msm (µg/mL), no clavulanic acid” value in experiment [2] was >128 µg/mL. With `NC(=O)OCC1=C(C(=O)O)N2C(=O)C(NC(=O)C(=CS(=O)(=O)CCc3ccc(O)c(O)c3)c3csc(N)n3)C2SC1` (stereo not drawn) [compound 24, 24], the pIC50 against Mtb PBP3 Δ1-122 [4] is given as 6.1 ± 0.089. As for `N#Cn1c(-c2cc(F)cc(C(F)(F)F)c2)nc2ccccc21` [compound 25, 25], in experiment [2], the “MIC Msm (µg/mL), no clavulanic acid” value came out at 48 µg/mL. Also, on Mtb PBP3 Δ1-122 [4], the IC50 is > 398 µM.

For `N#Cn1c(-c2ccncc2)nc2ccc(C(=O)c3ccccc3)cc21` [compound 26], the “MIC Msm (µg/mL), no clavulanic acid” value in experiment [2] worked out at 16 µg/mL. On to `O=C(C1OC1c1ccccc1)C1OC1c1ccccc1` (stereo not drawn) [compound 28, 28], for which the pIC50 at Mtb PBP3 Δ1-122 [4] was < 3.4.

With `COc1cccc(NC(=O)C(Cl)=C(Cl)S(=O)(=O)Cc2ccccc2Cl)n1` [compound 29, 29], the pIC50 against Mtb PBP3 Δ1-122 [4] is < 3.4. Consider `NC(=O)C=CC(=O)Nc1ccc(Cl)cc1` [compound 30, 30], for which, on Mtb PBP3 Δ1-122 [4], the IC50 is > 398 µM. As for `NC(=O)C=CC(=O)Nc1ccc(Cl)cc1` [compound 30], in experiment [2], the “MIC Msm (µg/mL), no clavulanic acid” value is >128 µg/mL.

On to `O=[N+]([O-])c1ccc(S(=O)(=O)c2ccccc2)nc1` [compound 31, 31], for which the IC50 on LdtMt2 [5] (setting [8]) was 5.01 µM; at Mtb PBP3 Δ1-122 [4], > 398 µM. In addition, the “MIC Msm (µg/mL), no clavulanic acid” value in experiment [2] was 8 µg/mL. The kinact/KI at LdtMt2 [6] (read-out: kinact/KI LdtMt2) came out at 52.6 M⁻¹ s⁻¹.

Regarding `O=[N+]([O-])c1ccc(S(=O)(=O)c2ccccc2)cn1` [compound 32, 32], at LdtMt2 [5] (setting [8]), the IC50 is 25.1 µM. For the same molecule, the kinact/KI at LdtMt2 [6] (read-out: kinact/KI LdtMt2) is < 10 M⁻¹ s⁻¹. Besides, the “MIC Msm (µg/mL), no clavulanic acid” value in experiment [7] was found to be 4 µg/mL. In the case of `Cc1ccc(S(=O)(=O)c2ccc([N+](=O)[O-])cn2)cc1` [compound 33, 33], the kinact/KI at LdtMt2 [6] (read-out: kinact/KI LdtMt2) turned out to be 51.9 M⁻¹ s⁻¹. On the same count and under the same terms, to `O=[N+]([O-])c1ccc(S(=O)(=O)c2ccc(Cl)cc2)nc1` [compound 34, 34] belongs 86.9 M⁻¹ s⁻¹; to `O=[N+]([O-])c1ccc(S(=O)(=O)c2ccc(Br)cc2)nc1` [compound 35, 35], 272 M⁻¹ s⁻¹. Consider `O=[N+]([O-])c1cccnc1S(=O)(=O)c1ccccc1` [compound 36, 36], for which the IC50 at LdtMt2 [5] (setting [8]) is 25.1 µM. For the same molecule, the kinact/KI on LdtMt2 [6] (read-out: kinact/KI LdtMt2) is < 10 M⁻¹ s⁻¹. Moreover, in experiment [7], the “MIC Msm (µg/mL), no clavulanic acid” value came to 16 µg/mL. With `O=S(=O)(c1ccccc1)c1ccccn1` [compound 37, 37], the IC50 at LdtMt2 [5] (setting [8]) was > 39.8 µM. Besides, at LdtMt2 [6] (read-out: kinact/KI LdtMt2), the kinact/KI is < 10 M⁻¹ s⁻¹. Moreover, the “MIC Msm (µg/mL), no clavulanic acid” value in experiment [7] was >128 µg/mL. In the case of `O=S(=O)(c1ccccc1)c1cccnc1` [compound 38, 38], the IC50 at LdtMt2 [5] (setting [8]) was > 39.8 µM. Besides, on LdtMt2 [6] (read-out: kinact/KI LdtMt2), the kinact/KI is < 10 M⁻¹ s⁻¹. Moreover, the “MIC Msm (µg/mL), no clavulanic acid” value in experiment [7] was >128 µg/mL. For the molecule `O=S(=O)(c1ccccc1)c1ccncc1` [compound 39, 39], the IC50 at LdtMt2 [5] (setting [8]) is > 39.8 µM. Also, the kinact/KI on LdtMt2 [6] (read-out: kinact/KI LdtMt2) is < 10 M⁻¹ s⁻¹. Also, in experiment [7], the “MIC Msm (µg/mL), no clavulanic acid” value was >128 µg/mL.

Take `COc1ccc(S(=O)(=O)c2ccccc2)nc1` [compound 40, 40]: the IC50 at LdtMt2 [5] (setting [8]) was > 39.8 µM. For the same molecule, the kinact/KI on LdtMt2 [6] (read-out: kinact/KI LdtMt2) is < 10 M⁻¹ s⁻¹. For the same molecule, the “MIC Msm (µg/mL), no clavulanic acid” value in experiment [7] is >128 µg/mL.

Take `N#Cc1ccc(S(=O)(=O)c2ccccc2)nc1` [compound 41, 41]: the IC50 on LdtMt2 [5] (setting [8]) is 25.1 µM. For the same molecule, the kinact/KI at LdtMt2 [6] (read-out: kinact/KI LdtMt2) is < 10 M⁻¹ s⁻¹. Further, the “MIC Msm (µg/mL), no clavulanic acid” value in experiment [7] is >128 µg/mL. For `N#Cc1cccnc1S(=O)(=O)c1ccccc1` [compound 42, 42], in that order: > 39.8 µM, < 10 M⁻¹ s⁻¹ and >128 µg/mL. With `O=[N+]([O-])c1ccc(Cl)nc1` [compound 43, 43], at LdtMt2 [5] (setting [8]), the IC50 is > 39.8 µM. Moreover, the kinact/KI on LdtMt2 [6] (read-out: kinact/KI LdtMt2) is < 10 M⁻¹ s⁻¹. Further, the “MIC Msm (µg/mL), no clavulanic acid” value in experiment [7] is 32 µg/mL.

As to `Clc1ccccn1` [compound 44, 44], the IC50 on LdtMt2 [5] is > 39.8 µM. For the same molecule, on LdtMt2 [6] (read-out: kinact/KI LdtMt2 (M^-1 s^-1)), the kinact/KI was < 10 M⁻¹ s⁻¹. Also, in experiment [7], the “MIC Msm (µg/mL), no clavulanic acid” value is >128 µg/mL.

`Nc1ncc(S(=O)(=O)c2ccc([N+](=O)[O-])cc2)s1` [compound 45, 45]: the “MIC Msm (µg/mL), no clavulanic acid” value in experiment [7] was >128 µg/mL. Regarding `O=[N+]([O-])c1ccc(S(=O)(=O)c2ncc(C(F)(F)F)cc2Cl)cc1` [compound 46, 46], the IC50 on LdtMt2 [5] (setting [8]) was > 39.8 µM. Besides, the kinact/KI on LdtMt2 [6] (read-out: kinact/KI LdtMt2) is < 10 M⁻¹ s⁻¹. Also, the “MIC Msm (µg/mL), no clavulanic acid” value in experiment [7] is >128 µg/mL.

Consider `C[C@@H](O)[C@H]1C(=O)N2C(C(=O)O)=C(S[C@@H]3CN[C@H](CNS(N)(=O)=O)C3)[C@H](C)[C@H]12` [doripenem], for which the “MIC Msm (µg/mL), no clavulanic acid” value in experiment [2] was 0.5 µg/mL.

For the molecule `C[C@@H](O)[C@H]1C(=O)N2C(C(=O)O)=C(S[C@@H]3CN[C@H](C(=O)Nc4cccc(C(=O)O)c4)C3)[C@H](C)[C@H]12` [ertapenem], in experiment [2], the “MIC Msm (µg/mL), no clavulanic acid” value is 4 µg/mL. For `C[C@@H](O)[C@H]1C(=O)N2C(C(=O)O)=C(S[C@@H]3CN[C@H](C(=O)N(C)C)C3)[C@H](C)[C@H]12` [meropenem], in experiment [2], the “MIC Msm (µg/mL), no clavulanic acid” value stood at 2 µg/mL.
